Experimental findings from US8883782B2, “Spiro-tetracyclic ring compounds as beta-secretase modulators and methods of use” (Amgen Inc., priority 2010, dated 2014) are described below.

Assay [1] addresses Beta Secretase enzyme (BACE) (Homo sapiens, UniProt P56817). As to the kind of experiment: In vitro enzymatic BACE FRET (fluorescence resonance energy transfer) assay. Format: biochemical. The note with it: average IC50, enzyme assay; read-out: BACE 1 FRET assay. Summed up: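 Acetate buffer (0.05 M, pH 4.2), 10% DMSO final, 100 uM nonionic detergent genapol. Substrate addition (50 nM FRET peptide) initiates; one-hour incubation; Tris raises pH to neutrality before fluorescence measurement.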

Assay [2] concerns Aβ40 in conditioned medium of cells stably expressing Amyloid Precursor Protein (APP). The assay is described as follows: In vitro BACE cell-based assay (Aβ40 in conditioned medium, sandwich ELISA). Particulars: read-out: HEK cell assay. The method in brief: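 Conditioned medium from stably APP-expressing cells treated with compound dose series is assayed for Aβ40 by sandwich ELISA with time-resolved fluorescence detection. IC50 is calculated from percent inhibition of Aβ40 against compound concentration.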
A general note: ELISA stands for enzyme-linked immunosorbent assay.

The mark [3] stands for this setting: Homo sapiens, HEK293, average IC50.
[4] abbreviates: Homo sapiens, HEK293, average IC50, HEK cells.

Like-named read-outs stand apart in the source and are kept apart here.

Beta Secretase enzyme (BACE), sequence (P56817 46-501, species assumed): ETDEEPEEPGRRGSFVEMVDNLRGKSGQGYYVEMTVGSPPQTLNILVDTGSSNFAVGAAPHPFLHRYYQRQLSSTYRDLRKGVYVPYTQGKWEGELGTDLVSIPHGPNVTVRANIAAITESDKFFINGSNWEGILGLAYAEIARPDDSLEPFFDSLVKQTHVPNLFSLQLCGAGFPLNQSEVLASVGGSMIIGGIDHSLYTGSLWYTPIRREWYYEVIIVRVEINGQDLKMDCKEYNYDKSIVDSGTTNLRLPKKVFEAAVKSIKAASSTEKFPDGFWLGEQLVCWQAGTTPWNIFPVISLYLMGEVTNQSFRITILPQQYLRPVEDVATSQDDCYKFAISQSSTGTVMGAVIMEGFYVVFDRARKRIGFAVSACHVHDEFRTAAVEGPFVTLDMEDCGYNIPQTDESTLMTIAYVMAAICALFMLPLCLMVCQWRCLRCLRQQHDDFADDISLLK

As for `NC1=N[C@@]2(CO1)c1cc(C#CC3CC3)ccc1Oc1cnc(C3=CCOCC3)cc12` [Example 159, (5S)-7-(cyclopropylethynyl)-3-(3,6-dihydro-2H-pyran-4-yl)spiro[chromeno[2,3-c]pyridine-5,4′-[1,3]oxazol]-2′-amine], the IC50 in assay [1] is 4.9 nM; in assay [2] (setting [3]) it was 84 nM.

`NC1=N[C@@]2(CO1)c1cc(-c3cccnc3F)ccc1Oc1cnc(C3CCCCC3)cc12` [Example 388, (5S)-3-cyclohexyl-7-(2-fluoro-3-pyridinyl)spiro[chromeno[2,3-c]pyridine-5,4′-[1,3]oxazol]-2′-amine]: the IC50 in assay [1] was found to be 2.9 nM; in assay [2] (setting [4]) it was 107 nM.

Turning to `CN(C)c1cc2c(cn1)Oc1ccc(-c3cccnc3F)cc1C21CSC(N)=N1` (stereo not shown) [Example 693, 7-(2-fluoro-3-pyridinyl)-N~3~,N~3~-dimethylspiro[chromeno[2,3-c]pyridine-5,4′-[1,3]thiazole]-2′,3-diamine], the IC50 in assay [1] came to 10.5 nM; in assay [2] (setting [4]) it was 237 nM.

Take `CC1(C#Cc2cnc3c(c2)[C@]2(COC(N)=N2)c2cc(-c4cncc(Cl)c4)ccc2O3)COC1` [Example 186, (5S)-7-(5-chloro-3-pyridinyl)-3-((3-methyl-3-oxetanyl)ethynyl)spiro[chromeno[2,3-b]pyridine-5,4′-[1,3]oxazol]-2′-amine]: the results for the IC50 in assay [1] and in assay [2] (setting [3]) were 0.5 nM and 3 nM, respectively.

Turning to `C[Si](C)(C)c1cc2c(nc1F)Oc1ccc(Br)cc1[C@@]21COC(N)=N1` [Example 90, (5S)-7-bromo-2-fluoro-3-(trimethylsilyl)spiro[chromeno[2,3-b]pyridine-5,4′-[1,3]oxazol]-2′-amine], the IC50 in assay [1] was 862 nM; in assay [2] (setting [3]), 10000 nM.

With `NC1=N[C@@]2(CS1)c1cc(-c3cccnc3F)c(F)cc1Oc1c(F)cc(N3CCOCC3)cc12` [Example 879, (4S)-3′,5′-difluoro-2′-(2-fluoro-3-pyridinyl)-7′-(4-morpholinyl)spiro[1,3-thiazole-4,9′-xanthen]-2-amine], the IC50 in assay [1] turned out to be 0.3 nM; in assay [2] (setting [4]) it was 11 nM.

As for `COc1cncc(-c2ccc3c(c2)[C@@]2(COC(N)=N2)c2cc(OCC4(C)COC4)c(F)cc2O3)c1` [Example 329, (4S)-3′-fluoro-7′-(5-methoxy-3-pyridinyl)-2′-((3-methyl-3-oxetanyl)methoxy)spiro[1,3-oxazole-4,9′-xanthen]-2-amine], the IC50 in assay [1] amounted to 8.9 nM; in assay [2] (setting [3]), 52.5 nM.

Regarding `COC(C)(C)C#Cc1cnc2c(c1)[C@]1(COC(N)=N1)c1cc(-c3cncc(F)c3)c(F)cc1O2` [Example 641, (5S)-8-fluoro-7-(5-fluoro-3-pyridinyl)-3-(3-methoxy-3-methyl-1-butyn-1-yl)spiro[chromeno[2,3-b]pyridine-5,4′-[1,3]oxazol]-2′-amine], the results for the IC50 in assay [1] and in assay [2] (setting [4]) were 0.9 nM and 13 nM, respectively.

`NC1=N[C@@]2(CO1)c1cc(-c3cncc(F)c3)ccc1Oc1c(F)cc(N3C[C@@H]4C[C@H]3CO4)cc12` [Example 276, (4S)-4′-fluoro-7′-(5-fluoro-3-pyridinyl)-2′-((1S,4S)-2-oxa-5-azabicyclo[2.2.1]hept-5-yl)spiro[1,3-oxazole-4,9′-xanthen]-2-amine]: the IC50 in assay [1] was found to be 0.8 nM; in assay [2] (setting [3]), 3.3 nM.

Consider `CC#Cc1cncc(-c2ccc3c(c2)[C@@]2(COC(N)=N2)c2cc(OCC4(C)COC4)cc(F)c2O3)c1` [Example 949, (4S)-4′-fluoro-2′-((3-methyl-3-oxetanyl)methoxy)-7′-(5-(1-propyn-1-yl)-3-pyridinyl)spiro[1,3-oxazole-4,9′-xanthen]-2-amine], for which the IC50 in assay [1] came out at 0.4 nM; in assay [2] (setting [4]), 3 nM.

Take `COc1ccc(-c2cnc3c(c2)[C@]2(CSC(N)=N2)c2cc(C#CC4(C)COC4)ccc2O3)cn1` [Example 941, (5S)-3-(6-methoxy-3-pyridinyl)-7-((3-methyl-3-oxetanyl)ethynyl)spiro[chromeno[2,3-b]pyridine-5,4′-[1,3]thiazol]-2′-amine]: the IC50 worked out at 3.8 nM in assay [1] and 97 nM in assay [2] (setting [4]).

Regarding `CC1(C)C[C@H](c2cnc3c(c2)[C@]2(COC(N)=N2)c2cc(-c4cccc(C#N)c4)ccc2O3)CCO1` [Example 471, 3-((5S)-2′-amino-3-((4R)-2,2-dimethyltetrahydro-2H-pyran-4-yl)spiro[chromeno[2,3-b]pyridine-5,4′-[1,3]oxazol]-7-yl)benzonitrile], the IC50 is 5.1 nM in assay [1] and 14 nM in assay [2] (average IC50, HEK cells).

On to `CC1(C#Cc2cnc3c(c2)[C@]2(CSC(N)=N2)c2cc(-c4cnccc4F)ccc2O3)COC1` [Example 727, (5S)-7-(4-fluoro-3-pyridinyl)-3-((3-methyl-3-oxetanyl)ethynyl)spiro[chromeno[2,3-b]pyridine-5,4′-[1,3]thiazol]-2′-amine], for which the IC50 in assay [1] stood at 4.1 nM; in assay [2] (setting [3]), 128 nM.

Turning to `CC#Cc1cncc(-c2ccc3c(c2)[C@@]2(COC(N)=N2)c2cc(-c4cnn(C)c4)cnc2O3)c1` [Example 944, (5S)-3-(1-methyl-1H-pyrazol-4-yl)-7-(5-(1-propyn-1-yl)-3-pyridinyl)spiro[chromeno[2,3-b]pyridine-5,4′-[1,3]oxazol]-2′-amine], the IC50 in assay [1] worked out at 0.5 nM; in assay [2] (setting [4]) it was 1 nM.

On to `NC1=N[C@@]2(CO1)c1cc(-c3cncc(F)c3)ccc1Oc1cnc([C@@H]3CCCCO3)cc12` [Example 381, (5S)-7-(5-fluoro-3-pyridinyl)-3-((2S)-tetrahydro-2H-pyran-2-yl)spiro[chromeno[2,3-c]pyridine-5,4′-[1,3]oxazol]-2′-amine], for which the IC50 in assay [1] worked out at 7.3 nM; in assay [2] (setting [3]), 62.6 nM.

In the case of `CC(C)(C)C#Cc1cnc2c(c1)[C@@]1(COC(N)=N1)c1cc(-c3cncnc3)c(F)cc1O2` [Example 338, (5R)-3-(3,3-dimethyl-1-butyn-1-yl)-8-fluoro-7-(5-pyrimidinyl)spiro[chromeno[2,3-b]pyridine-5,4′-[1,3]oxazol]-2′-amine], the IC50 was determined as 213 nM in assay [1] and 1240 nM in assay [2] (setting [3]).

Consider `NC1=N[C@@]2(CO1)c1cc(-c3c(F)ccnc3F)ccc1Oc1cnc([C@H]3CCCCO3)cc12` [Example 617, (5S)-7-(2,4-difluoro-3-pyridinyl)-3-((2R)-tetrahydro-2H-pyran-2-yl)spiro[chromeno[2,3-c]pyridine-5,4′-[1,3]oxazol]-2′-amine], for which the IC50 stood at 5.2 nM in assay [1] and 42 nM in assay [2] (average IC50, HEK cells).

For `CC1(C)CC(c2cc(F)c3c(c2)[C@]2(COC(N)=N2)c2cc(-c4cccnc4F)ccc2O3)=CC(=O)O1` [Example 804, 4-((4S)-2-amino-4′-fluoro-7′-(2-fluoro-3-pyridinyl)spiro[1,3-oxazole-4,9′-xanthen]-2′-yl)-6,6-dimethyl-5,6-dihydro-2H-pyran-2-one], the figures for the IC50 in assay [1] and in assay [2] (setting [3]) were 0.8 nM and 33 nM, respectively.

In the case of `NC1=N[C@@]2(CO1)c1cc(-c3ccc(F)nc3)ccc1Oc1c(F)cc(C3CCOCC3)cc12` [Example 301, (4S)-4′-fluoro-7′-(6-fluoro-3-pyridinyl)-2′-(tetrahydro-2H-pyran-4-yl)spiro[1,3-oxazole-4,9′-xanthen]-2-amine], the IC50 in assay [1] was 4.8 nM; in assay [2] (setting [3]), 15.9 nM.

`NC1=N[C@]2(CO1)c1cc(-c3cccnc3F)ccc1Oc1c2cc(C#Cc2cccnc2)nc1F` [Example 747, (5R)-1-fluoro-7-(2-fluoro-3-pyridinyl)-3-(3-pyridinylethynyl)spiro[chromeno[2,3-c]pyridine-5,4′-[1,3]oxazol]-2′-amine]: the values for the IC50 in assay [1] and in assay [2] (setting [3]) were 1120 nM and at least 10000 nM, respectively.

For `CC1(C#Cc2cncc(-c3ccc4c(c3)[C@@]3(COC(N)=N3)c3cc(C5=CCCOC5)ncc3O4)c2)COC1` [Example 813, (5S)-3-(5,6-dihydro-2H-pyran-3-yl)-7-(5-((3-methyl-3-oxetanyl)ethynyl)-3-pyridinyl)spiro[chromeno[2,3-c]pyridine-5,4′-[1,3]oxazol]-2′-amine], the IC50 in assay [1] is 2.5 nM; in assay [2] (setting [3]), 53 nM.

For `CC1(C#Cc2cnc3c(c2)[C@@]2(COC(N)=N2)c2cc(-c4cnccc4F)c(F)cc2O3)COC1` [Example 622, (5R)-8-fluoro-7-(4-fluoro-3-pyridinyl)-3-((3-methyl-3-oxetanyl)ethynyl)spiro[chromeno[2,3-b]pyridine-5,4′-[1,3]oxazol]-2′-amine], the IC50 in assay [1] was found to be 105 nM; in assay [2] (setting [4]) it was 452 nM.

Turning to `NC1=N[C@]2(CO1)c1cc(-c3cncc(F)c3)c(F)cc1Oc1ncc(C3=CCOCC3)cc12` [Example 648, (5R)-3-(3,6-dihydro-2H-pyran-4-yl)-8-fluoro-7-(5-fluoro-3-pyridinyl)spiro[chromeno[2,3-b]pyridine-5,4′-[1,3]oxazol]-2′-amine], the values for the IC50 in assay [1] and in assay [2] (setting [4]) were 330 nM and 2780 nM, respectively.

For the compound `CC1(C)C[C@@H](c2cnc3c(c2)[C@]2(COC(N)=N2)c2cc(-c4cccc(Cl)c4)ccc2O3)CCO1` [Example 474, (5S)-7-(3-chlorophenyl)-3-((4S)-2,2-dimethyltetrahydro-2H-pyran-4-yl)spiro[chromeno[2,3-b]pyridine-5,4′-[1,3]oxazol]-2′-amine], the IC50 came to 0.9 nM in assay [1] and 9.4 nM in assay [2] (average IC50, HEK cells).

As to `COc1ncc(-c2ccc3c(c2)[C@@]2(COC(N)=N2)c2cc(/C=C/C(C)(C)C)ncc2O3)cn1` [Example 406, (5S)-3-((1E)-3,3-dimethyl-1-buten-1-yl)-7-(2-methoxy-5-pyrimidinyl)spiro[chromeno[2,3-c]pyridine-5,4′-[1,3]oxazol]-2′-amine], the results for the IC50 in assay [1] and in assay [2] (setting [4]) were 183 nM and 712 nM, respectively.

For `CC#Cc1cncc(-c2ccc3c(c2)[C@@]2(CSC(N)=N2)c2cc(C4=CCOCC4)cnc2O3)c1` [Example 772, (5S)-3-(3,6-dihydro-2H-pyran-4-yl)-7-(5-(1-propyn-1-yl)-3-pyridinyl)spiro[chromeno[2,3-b]pyridine-5,4′-[1,3]thiazol]-2′-amine], the IC50 worked out at 0.5 nM in assay [1] and 2 nM in assay [2] (setting [3]).
